The values below come from patent publication US20260317332A1, “BICYCLIC HETEROCYCLE COMPOUNDS FOR THE TREATMENT OF CANCER” (Hoffmann-La Roche Inc., priority 2023, published 2026).

For assay [1], the target named is T1, CD73 (Homo sapiens, UniProt P21589).
T1 sequence (P21589 27-574): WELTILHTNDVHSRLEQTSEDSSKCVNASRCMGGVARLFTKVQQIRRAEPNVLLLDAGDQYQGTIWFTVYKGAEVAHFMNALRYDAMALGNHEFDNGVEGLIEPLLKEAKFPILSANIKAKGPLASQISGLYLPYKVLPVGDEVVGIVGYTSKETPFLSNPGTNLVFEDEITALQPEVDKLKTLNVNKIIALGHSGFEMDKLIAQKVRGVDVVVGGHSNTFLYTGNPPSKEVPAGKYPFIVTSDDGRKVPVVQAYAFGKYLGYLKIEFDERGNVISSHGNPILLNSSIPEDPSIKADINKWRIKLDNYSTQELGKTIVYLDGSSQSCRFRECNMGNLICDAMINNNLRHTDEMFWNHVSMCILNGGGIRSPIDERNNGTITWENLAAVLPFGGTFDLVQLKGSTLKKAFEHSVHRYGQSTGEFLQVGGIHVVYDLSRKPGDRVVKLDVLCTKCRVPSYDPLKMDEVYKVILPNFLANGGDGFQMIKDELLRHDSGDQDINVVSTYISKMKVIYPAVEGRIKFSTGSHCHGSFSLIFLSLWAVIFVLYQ
The experiment in a line: Human CD73 Biochemical Assay. Conditions: 0.05 nM recombinant CD73; AMP 5.56 μM final; 10 min at room temperature; LC/MS adenosine readout; read-out: Enzymatic IC50 against human CD73. On the procedure: The purpose of this assay is to identify and characterize inhibitors of human CD73 enzymatic activity. Compound serial dilution (1:3) was prepared with Echo 555 liquid handler (Labcyte) into the corresponding wells of a 384-well plate. 10 μL of enzyme working solution (containing 0.05 nM recombinant CD73 protein, 10 mM Tris pH 7.5, 100 mM NaCl, 0.01% BSA, 0.2 mM Octyl glucoside and 1 mM NaH2PO4) was added to the assay plate and incubated with compounds for 15 minutes at room temperature. After adding 15 μL of AMP working solution (Containing 10 mM Tris pH 7.5, 100 mM NaCl, 0.01% BSA, 0.2 mM Octyl glucoside, with 5.56 μM of AMP final concentration) and incubate for 10 min at room temperature. Stop the reaction by adding 75 μL of stop solution (5% TCA in H2O containing 250 nM 13C5-adenosine) to each well for 10 min incubation. After centrifugation, 75 μL of the mixture was transferred to a new 384-well plate for LC/MS analysis.
Samples from the 384-well plates, were loaded onto an autosampler deck, then injected with ADDA-LC-MS/MS. The aqueous mobile phase is 0.1% formic acid in water. The organic mobile phase is 0.1% formic acid in acetonitrile. Flow rate is maintained at 0.8 mL/minute using Shimadzu pumps. The column is ACE 5 Phenyl, 50×2.1 mm. The analysis was performed on a SCIEX triple quadrupole mass spectrometer operating in positive ion mode. The effluent from the HPLC column was directly introduced into the electrospray ionization (ESI). Multiple reaction monitoring (MRM) is used to determine analyte and internal standard (IS) responses. The MRM for adenosine is 268.1/136.1, for 13C5-Adenosine (IS) is 273.2/136.2. The data is calculated using the peak area ratio (PAR) semi-quantitative method.

Assay [2] concerns the target T1, CD73. The experiment in a line: CD73 Cellular Assay. The class given is cell-based. On the set-up: 40 μL of MDA-MB-231 cells (ATCC, HTB-26, breast cancer); host or cells: MDA-MB-231. Conditions: MDA-MB-231 cells; 200 μM AMP working solution; 45 min at 37° C.; malachite readout; read-out: Cellular IC50 against CD73. On the procedure: Compound serial dilution (1:3) was prepared with Echo 555 liquid handler (Labcyte) into the corresponding wells of a 384-well plate. 40 μL of MDA-MB-231 cells (ATCC, HTB-26, breast cancer, final concentration at 20,000 cells/mL) suspended in assay buffer (20 mM HEPES pH 7.4, 137 mM NaCl, 5.4 mM KCl, 1.3 mM CaCl2, 4.2 mM NaHCO3, 1 mg/mL glucose) were added into the corresponding wells of the plate. After incubating with compounds for 30 minutes, 40 μL of AMP working solution (200 μM AMP in assay buffer) was added into each well in the assay plate. The assay plate was then incubated in a 5% CO2 incubator (Thermo Fisher Scientific) at 37° C. for 45 min. After the reaction was completed, 50 μL of the supernatants was collected and transferred into a new 384 well plate. 10 μL of Malachite A was added to each well in the assay plate and incubated for 10 minutes. 10 μL of Malachite B was then added to each corresponding well of the plate and incubated for 30 minutes. Finally the absorbance value was read on the Envision plate reader at […]. Calculation percentage inhibition by using equation {% inhibition=100×[1−(X−MIN)/(MAX−MIN)]} where X equals to the well signal, Max equals signal of neutral control and MIN equals signal of inhibitor control.

Assay [3] has as its system CD4+ T cells. The experiment in a line: T Cell Proliferation Assay: CD4+ T cell proliferation. The assay is classed as cell-based. Conditions: Homo sapiens, high AMP condition (200 μM AMP, 5 μM EHNA), CD3/CD28 beads, 72 hours, read-out: CD4+ T cell proliferation EC50 (rescue of proliferation). On the procedure:
(§1) The purpose of this assay is to characterize the potency of inhibitors of CD73 in rescuing adenosine-mediated inhibition of T cell proliferation. CD4+ or CD8+ T cells were isolated from peripheral blood mononuclear cells (PBMCs, HemaCare) by immunomagnetic negative selection using EasySep™ Isolation Kit (STEMCELL Technologies) following the supplier's protocol. Pan T cells were pelleted by centrifugation at 300 gravitational force (g) for 5 minutes at room temperature and re-suspended in PBS. CellTrace™ Violet staining solution (Invitrogen) was added at 1:5,000 and incubated at 37° C. for 20 minutes, protected from light. Complete culture medium [RPMI-1640 (Gibco), 10% Fetal Bovine Serum (Gibco), 2 mM GlutaMAX (Gibco) and 1 mM Sodium Pyruvate (Gibco), 100 U/mL Penicillin-Streptomycin (Gibco) and MEM non-essential amino acids (NEAA) cell culture supplement (1:100, Gibco)] was then added, mixed, and incubated at 37° C. for 5 minutes. Cells were then pelleted by centrifugation at 300 g for 5 minutes at room temperature and re-suspended in fresh, pre-warmed complete culture medium. 50 μL of cells were seeded per well in 96 well u-bottom plates. 50 μL of CD3/CD28 beads-containing medium and 50 μL of media containing compounds were added into cells. 50 μL of media containing AMP and EHNA hydrochloride (Sigma-Aldrich) was added into cells at 200 μM and 5 μM final concentration, respectively. Cells were incubated for 72 hours at 37° C. in a 5% CO2 incubator. 200 μL of PBS was then added to each well and cells were centrifuged at 300 g, 4° C. for 10 minutes. The supernatant was discarded. 50 μL of Human TruStain FcX™ (Fc Receptor Blocking Solution, BioLegend) diluted 1:100 in PBS was added to each well, mixed gently and incubated for 20 minutes at 4° C. 50 μL of staining solution (BioLegend) was added to each well, mixed gently and incubated at 4° C. for 30 minutes. Cells were centrifuged at 300 g, 4° C. for 10 minutes and the supernatant was discarded. The cell pellets were washed with 250 μL of cell staining buffer and centrifuged at 300 g, 4° C. for 10 minutes. The supernatant was discarded and cells were re-suspended in 60 μL of cell staining buffer and analyzed on a flow cytometer.

In assay [4] the test system is CD8+ T cells. Nature of the assay: T Cell Proliferation Assay: CD8+ T cell proliferation. The assay is classed as cell-based. Conditions: high AMP condition (200 μM AMP, 5 μM EHNA), CD3/CD28 beads, 72 hours, read-out: CD8+ T cell proliferation EC50 (rescue of proliferation). On the procedure: as §1

As usually defined, the IC50 is the concentration that gives 50% inhibition.

In the case of `Cn1nc(O[C@H](c2cc(OCC(F)(F)F)ncn2)C(F)F)c2cc(-c3c[nH]c(=O)[nH]c3=O)nnc21` (single isomer, unassigned) [Example 35A], the IC50 is 0.06 nM in assay [1] and 0.59 nM in assay [2]. The results for the EC50 in assay [3] and in assay [4] were 0.3 nM and 0.32 nM, respectively.

Consider `Cn1nc(O[C@H](c2ccnc(COC3CC3)c2)C(F)F)c2cc(-c3c[nH]c(=O)[nH]c3=O)nnc21` [Example 2, 5-[3-[(1R)-1-[2-(cyclopropoxymethyl)-4-pyridyl]-2,2-difluoro-ethoxy]-1-methyl-pyrazolo[3,4-c]pyridazin-5-yl]-1H-pyrimidine-2,4-dione], for which the figures for the IC50 in assay [1] and in assay [2] were 0.07 nM and 0.21 nM, respectively. The results for the EC50 in assay [3] and in assay [4] were 0.18 nM and 0.17 nM, respectively.

Take `Cn1nc(O[C@H](c2cc(OCC(F)(F)F)ccn2)C(F)F)c2cc(-c3c[nH]c(=O)[nH]c3=O)nnc21` [Example 4, 5-[3-[(1R)-2,2-difluoro-1-[4-(2,2,2-trifluoroethoxy)-2-pyridyl]ethoxy]-1-methyl-pyrazolo[3,4-c]pyridazin-5-yl]-1H-pyrimidine-2,4-dione]: the values for the IC50 in assay [1] and in assay [2] were 0.07 nM and 0.49 nM, respectively. In addition, the EC50 in assay [3] was 0.18 nM; in assay [4] it was 0.22 nM.

Regarding `Cn1nc(O[C@H](c2ccnc(OCC(F)(F)F)c2)C(F)F)c2cc(-c3c[nH]c(=O)[nH]c3=O)nnc21` [Example 10, 5-[3-[(1R)-2,2-difluoro-1-[2-(2,2,2-trifluoroethoxy)-4-pyridyl]ethoxy]-1-methyl-pyrazolo[3,4-c]pyridazin-5-yl]-1H-pyrimidine-2,4-dione], the results for the IC50 in assay [1] and in assay [2] were 0.06 nM and 0.55 nM, respectively. For the same compound, the EC50 was 0.14 nM in assay [3] and 0.08 nM in assay [4].

For the compound `Cn1nc(O[C@H](c2ccnc(OCC(F)F)c2)C(F)F)c2cc(-c3c[nH]c(=O)[nH]c3=O)nnc21` [Example 11B, 5-[3-[(1R)-1-[2-(2,2-difluoroethoxy)-4-pyridyl]-2,2-difluoro-ethoxy]-1-methyl-pyrazolo[3,4-c]pyridazin-5-yl]-1H-pyrimidine-2,4-dione], the IC50 came to 0.05 nM in assay [1] and 0.72 nM in assay [2]. The EC50 in assay [3] stood at 0.24 nM; in assay [4], 0.29 nM.

As for `Cn1nc(O[C@H](c2ccnc(OCC(F)(F)F)c2)C(F)F)c2cc(-c3n[nH]c(=O)[nH]c3=O)nnc21` [Example 12, 6-[3-[(1R)-2,2-difluoro-1-[2-(2,2,2-trifluoroethoxy)-4-pyridyl]ethoxy]-1-methyl-pyrazolo[3,4-c]pyridazin-5-yl]-2H-1,2,4-triazine-3,5-dione], the IC50 in assay [1] is 0.02 nM; in assay [2], 0.67 nM. Moreover, the values for the EC50 in assay [3] and in assay [4] were 0.15 nM and 0.12 nM, respectively.

Regarding `Cn1nc(O[C@H](c2ccc3cnn(CC(F)(F)F)c3c2)C(F)F)c2cc(-c3c[nH]c(=O)[nH]c3=O)nnc21` [Example 24, 5-[3-[(1R)-2,2-difluoro-1-[1-(2,2,2-trifluoroethyl)indazol-6-yl]ethoxy]-1-methyl-pyrazolo[3,4-c]pyridazin-5-yl]-1H-pyrimidine-2,4-dione], the IC50 worked out at 0.05 nM in assay [1] and 0.44 nM in assay [2]. In addition, the EC50 in assay [3] stood at 0.19 nM; in assay [4], 0.23 nM.

Regarding `C[C@H](Nc1cc([C@@H](Oc2nn(C)c3nnc(-c4c[nH]c(=O)[nH]c4=O)cc23)C(F)F)ccn1)C(F)(F)F` [Example 26, 5-[3-[(1R)-2,2-difluoro-1-[2-[[(1S)-2,2,2-trifluoro-1-methyl-ethyl]amino]-4-pyridyl]ethoxy]-1-methyl-pyrazolo[3,4-c]pyridazin-5-yl]-1H-pyrimidine-2,4-dione], the IC50 in assay [1] was 0.04 nM; in assay [2], 0.27 nM. For the same compound, the figures for the EC50 in assay [3] and in assay [4] were 0.08 nM and 0.09 nM, respectively.

Take `O=c1[nH]cc(-c2cc(N3C[C@H](Oc4ncc(C(F)(F)F)cn4)C(F)(F)C3)c3nccn3n2)c(=O)[nH]1` [Example G351, reference compound]: the IC50 in assay [2] is 3.53 nM. Further, the EC50 in assay [3] was determined as 8.8 nM; in assay [4], 8.2 nM.
